Data on ten compounds can be found in patent publication US8815852B2, “Carbamoyloxy arylalkan arylpiperazine analgesics” (SK Biopharmaceuticals Co., Ltd., priority 2007, dated 2014).

One assay deals with 5-HT1A receptor (Rattus norvegicus (Rat), UniProt P19327). In words: Binding to 5-HT1A receptor ([3H]-8-OH-DPAT, rat cortical membranes). Also on record: species or system Sprague-Dawley (SD) rats. As to conditions: for IC50: 2 nM [3H]-8-OH-DPAT, read-out: 5-HT1A: IC50 (Concentration required to be 50% suppressed); for inhibition at 1 µM: 1 h, read-out: 5-HT1A: Suppression. Here is the method:
Binding to 5-HT1A Receptor
6-week-old Sprague-Dawley (SD) rats were anesthetized in an ether container for 5 minutes, brains were separated from rats, and cortical regions were then separated from the brains of the rats. The cortical regions of the rats were put into a Tris-HCl buffer solution (50 mM, pH 7.4) and homogenized, and the homogenate was centrifuged twice at 4? at a rotary speed of 50,000 g to obtain a precipitate (membrane protein). The precipitate was put into a buffer solution, and homogenized, which was used later as a protein source. 2 nM [3H]-8-OH-DPAT was used as a radioactive isotope, and 10 uM serotonin was used to remove non-specific bindings. 25 ul of the compound, 100 ul of an aqueous radioactive isotope solution, and 100 ul of the protein source were put together, and kept at 25° C. for 1 hour. The resulting mixture was filtered with a membrane filter in a 96-well harvester when the 96-well plate reaction was completed. The competitivity of the compound to [3H]-8-OH-DPAT was determined by taking the membrane filter and measuring the radioactivity of the membrane filter in a scintillation counter, and an IC50 value was determined by measuring the increasing concentration of the compound. The specific reaction of the compound accounted for 90% or more. The general experiments were carried out according to the method by Middlemiss et al. (1984, Eur. J. Pharmacol.).

In another assay the target is 5-HT2A receptor (Rattus norvegicus (Rat), UniProt P14842). Briefly: Binding to 5-HT2A receptor ([3H]-Ketanserin, rat cortical membranes). As to conditions: for IC50: 0.5 nM [3H]-Ketanserin, read-out: 5-HT2A: IC50 (Concentration required to be 50% suppressed); for inhibition at 1 µM: 1 h, read-out: 5-HT2A: Suppression. Further details: species or system Sprague-Dawley (SD) rats. Here is the method:
Binding to 5-HT2A Receptor
6-week-old Sprague-Dawley (SD) rats were anesthetized in an ether container for 5 minutes, brains were separated from rats, and cortical regions were then separated from the brains of the rats. The cortical regions of the rats were put into a Tris-HCl buffer solution (50 mM, pH 7.7) and homogenized, and the homogenate was centrifuged twice at 4° C. at a rotary speed of 50,000 g to obtain a precipitate (membrane protein). The precipitate was put into a buffer solution, and homogenized, which was used later as a protein source. 0.5 nM [3H]-Ketanserin was used as a radioactive isotope, and 10 uM serotonin was used to remove non-specific bindings. 25 ul of the compound, 100 ul of an aqueous radioactive isotope solution, and 100 ul of the protein source were put together, and kept at 25° C. for 1 hour. The resulting mixture was filtered with a membrane filter in a 96-well harvester when the 96-well plate reaction was completed. The competitivity of the compound to [3H]-Ketanserin was determined by taking the membrane filter and measuring the radioactivity in a scintillation counter, and an IC50 value was determined by measuring the increasing concentration of the compound. The specific reaction of the compound accounted for 90% or more. The general experiments were carried out according to the method by Leysen et al. (1982, Eur. J. Pharmacol).

For assay [1], the system named is male ICR mouse. Briefly: Acetic acid-induced writhing test in mouse. Format: in vivo. As to conditions: Mus musculus; for ED50: unit not given (method doses in mg/kg), read-out: AA Writhing: ED50. The method in brief:
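Male ICR mice (30 to 35 g) dosed orally at 10 mg/kg, then given 0.8% acetic acid i.p. 1 h later. Writhes counted for 10 min and expressed as % suppression against vehicle. ED50 derived by linear regression over at least three doses.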

Assay [2] deals with male ICR mouse. In words: Formalin test - late phase in mouse. Format: in vivo. As to conditions: po, unit inferred. The protocol: 3. Formalin Test—Late Phase in Mouse
A formalin test is another model for measuring an analgesic effect of drugs. […] These pain behaviors have a biphasic pattern, and therefore they are divided into an early-phase behavior within […] after the formalin administration; and a late-phase behavior up to 10 to 60 minutes. The medicinal effect observed in the formalin test-late phase means an analgesic effect of the test material in the inflammatory pain model, and also becomes a measure that may predict the medicinal effects in the neuropathic pain model (Vissers K et. al, 2003). A test material was orally administered to a male ICR mouse weighing 30 to 35 g. After 1 hour of the oral administration, 20 μl of a 2.5% formalin solution was subcutaneously injected into the planta surface of a mouse's hindlimb to induce pain. […] The analgesic effect of the test material is represented by the ‘suppression ratio of pain response’ {[(Pain response time of Vehicle-administered group−Pain response time of Test material-administered group)/(Pain response time of Vehicle-administered group)]×100%}, or ‘50% of Effective amount (ED50; an amount of a test material that is required to suppress 50% of pain behaviors) of Test material’. The ED50 (median effective dose) was determined by calculating the suppression ratio of pain response in at least three doses of test materials and subjecting to the linear regression.

Assay [3] concerns male ICR mouse. Briefly: Formalin test - late phase in mouse. Format: in vivo. The note with it: ip, unit inferred.

5-HT1A receptor, sequence (P19327 whole entry): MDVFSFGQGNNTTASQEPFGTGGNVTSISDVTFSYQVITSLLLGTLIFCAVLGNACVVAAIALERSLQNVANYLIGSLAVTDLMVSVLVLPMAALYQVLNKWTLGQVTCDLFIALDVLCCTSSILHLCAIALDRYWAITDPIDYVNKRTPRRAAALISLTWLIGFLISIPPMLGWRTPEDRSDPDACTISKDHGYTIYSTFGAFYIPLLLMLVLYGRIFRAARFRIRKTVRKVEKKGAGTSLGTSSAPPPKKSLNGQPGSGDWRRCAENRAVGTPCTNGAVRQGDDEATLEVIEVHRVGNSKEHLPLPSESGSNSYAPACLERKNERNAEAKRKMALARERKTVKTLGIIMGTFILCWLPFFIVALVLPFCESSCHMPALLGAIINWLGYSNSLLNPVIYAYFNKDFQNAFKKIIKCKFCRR
5-HT2A receptor, sequence (P14842 whole entry): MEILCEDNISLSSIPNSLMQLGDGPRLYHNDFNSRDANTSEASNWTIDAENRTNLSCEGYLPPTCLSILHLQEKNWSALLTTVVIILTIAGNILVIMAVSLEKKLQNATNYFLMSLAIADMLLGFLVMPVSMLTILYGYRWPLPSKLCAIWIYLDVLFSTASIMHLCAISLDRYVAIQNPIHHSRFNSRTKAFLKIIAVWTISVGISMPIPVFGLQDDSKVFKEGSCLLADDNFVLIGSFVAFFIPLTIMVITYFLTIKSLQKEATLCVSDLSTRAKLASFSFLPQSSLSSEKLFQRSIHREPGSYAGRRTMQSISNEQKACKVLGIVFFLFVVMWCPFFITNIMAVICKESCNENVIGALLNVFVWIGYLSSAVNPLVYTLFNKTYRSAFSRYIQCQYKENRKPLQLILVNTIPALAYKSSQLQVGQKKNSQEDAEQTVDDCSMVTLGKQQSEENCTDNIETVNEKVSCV

On to `NC(=O)OC(CCN1CCN(c2ccccc2)CC1)c1ccccc1` (stereo not drawn) [Example 1, Carbamic acid 1-phenyl-3-(4-phenyl-piperazin-1-yl)-propyl ester], for which the IC50 worked out at 434 nM at 5-HT1A receptor and 139 nM on 5-HT2A receptor. The ED50 stood at 6.31 mg/kg in the assay with male ICR mouse [1] (po) and 8.43 mg/kg in the assay with male ICR mouse [2].

In the case of `NC(=O)OC(CCN1CCN(c2ccccc2)CC1)c1ccc([N+](=O)[O-])cc1` (stereo not drawn) [Example 9, Carbamic acid 1-(4-nitro-phenyl)-3-(4-phenyl-piperazin-1-yl)-propyl ester], the inhibition at 1 µM on 5-HT1A receptor was found to be 81.4%; at 5-HT2A receptor it was 88%. Also, the inhibition in vivo at 10 mg/kg with male ICR mouse [1] (po, 1 h, at 10 po (method: 10 mg/kg oral, 1 hour before acetic acid), read-out: AA Writhing: Suppression ratio of Pain response) was determined as 91%. The same compound had an ED50 in the assay on male ICR mouse [2] of 2.39 mg/kg.

As to `NC(=O)OC(CCN1CCN(c2ccc([N+](=O)[O-])cc2)CC1)c1ccccc1` (stereo not drawn) [Example 16, Carbamic acid 1-phenyl-3-[4-(4-nitro-phenyl)-piperazin-1-yl]-propyl ester], the IC50 at 5-HT1A receptor came to 6570 nM; at 5-HT2A receptor, 2050 nM. The ED50 was determined as 2.92 mg/kg in the assay on male ICR mouse [1] (ip) and 11.6 mg/kg in the assay on male ICR mouse [2].

With `COc1ccc(N2CCN(CCC(OC(N)=O)c3ccccc3)CC2)cc1` (stereo not drawn) [Example 20, Carbamic acid 3-[4-(4-methoxy-phenyl)-piperazin-1-yl]-1-phenyl-propyl ester], the IC50 on 5-HT1A receptor was 19800 nM; at 5-HT2A receptor it was 5850 nM. For the same compound, the results for the ED50 in the assay with male ICR mouse [1] (po) and in the assay with male ICR mouse [2] were 3.12 mg/kg and 5.77 mg/kg, respectively.

In the case of `NC(=O)OC(CCN1CCN(c2ccccc2)CC1)c1ccc(F)cc1` (stereo not drawn) [Example 6, Carbamic acid 1-(4-fluoro-phenyl)-3-(4-phenyl-piperazin-1-yl)-propyl ester], the inhibition at 1 µM at 5-HT1A receptor stood at 65.5%; at 5-HT2A receptor, 84.7%. For the same compound, the median effective dose (ED50) is 2.79 mg/kg with male ICR mouse [1] (po) and 4.45 mg/kg in the assay with male ICR mouse [2].

Take `COc1ccc(N2CCN(CC[C@@H](OC(N)=O)c3ccccc3)CC2)cc1` [Example 102, (R)-carbamic acid 3-[4-(4-methoxy-phenyl)-piperazin-1-yl]-1-phenyl-propyl ester]: the values for the IC50 at 5-HT1A receptor and on 5-HT2A receptor were 4310 nM and 2780 nM, respectively. The median effective dose (ED50) in the assay on male ICR mouse [1] (po) turned out to be 3.15 mg/kg; in the assay on male ICR mouse [2] it was 4.77 mg/kg.

For `NC(=O)OC(CCN1CCN(c2ccccc2F)CC1)c1ccccc1` (stereo not drawn) [Example 41, Carbamic acid 3-[4-(2-fluoro-phenyl)-piperazin-1-yl]-1-phenyl-propyl ester], the results for the IC50 at 5-HT1A receptor and at 5-HT2A receptor were 160 nM and 110 nM, respectively. In addition, the results for the ED50 with male ICR mouse [1] (ip) and in the assay on male ICR mouse [2] were 0.34 mg/kg and 33.2 mg/kg, respectively.

For `NC(=O)OC(CCN1CCN(c2ccccc2)CC1)c1ccc(Cl)cc1` (stereo not drawn) [Example 2, Carbamic acid 1-(4-chloro-phenyl)-3-(4-phenyl-piperazin-1-yl)-propyl ester], the inhibition at 1 µM at 5-HT1A receptor came out at 64.6%; at 5-HT2A receptor, 84.6%. Further, the ED50 with male ICR mouse [1] (po) is 2.14 mg/kg; with male ICR mouse [2], 2.2 mg/kg.

Take `NC(=O)OC(CCCN1CCN(c2ccccc2)CC1)c1ccccc1` (stereo not drawn) [Example 94, Carbamic acid 1-phenyl-4-(4-phenyl-piperazin-1-yl)-butyl ester]: the IC50 on 5-HT1A receptor is 89.8 nM; at 5-HT2A receptor, 514 nM. In addition, the median effective dose (ED50) in the assay on male ICR mouse [1] (ip) was 0.25 mg/kg; with male ICR mouse [1] (po) it was 3.61 mg/kg; in the assay on male ICR mouse [3], 2.79 mg/kg.

For `Cc1ccccc1N1CCN(CCC(OC(N)=O)c2ccccc2)CC1` (stereo not drawn) [Example 37, Carbamic acid 1-phenyl-3-(4-o-tolylpiperazin-1-yl)-propyl ester], the figures for the ED50 in the assay on male ICR mouse [1] (ip) and in the assay with male ICR mouse [2] were 1.96 mg/kg and 42.4 mg/kg, respectively.
